A short description of this series: Gel state after standing overnight and affinity with water (Example 1). In kind it is physicochemical. The arrangement: key to Affinity with water by addition of milliQ water: a sample ascertained to have the affinity with water is evaluated as ∘; a sample ascertained to have no affinity with water is evaluated as x. As to the method: N-Palmitoyl-Gly-His synthesized above was dissolved in a 50 mM phosphate buffer solution (pH 7.5) so as to give a concentration of 1% (w/w) in a closed system at 100° C. To the solution, gum arable (Wako Pure Chemical Industries, Ltd.) was added dropwise so as to give a concentration of 10% (w/w) so as to form gel. From the formed gel, 200 μl of the gel was taken and dropped onto a glass petri dish. The gel was left overnight and then observed. To the gel after standing overnight, milliQ water was dropped, and the affinity with water was observed. Also, PVA (manufactured by Wako Pure Chemical Industries, Ltd., n=1,500 to 1,800) at a concentration of 10% (w/w) was added dropwise, in place of the gum arabic, so as to form gel. Then, the gel was subjected to the same procedure, and the gel after standing overnight was observed.
For comparison, gum arable alone or PVA alone was used without using N-palmitoyl-Gly-His and was dropped onto a glass petri dish in a similar manner. Then, each sample was left overnight and then observed in a similar manner.
From the observation results, a sample ascertained to have the affinity with water is evaluated as ∘, and a sample ascertained to have no affinity with water is evaluated as x.

Each structure is given as a SMILES string. Residues, ends and D or L forms follow the SMILES beside them. *: point of attachment. Palmitoyl = CCCCCCCCCCCCCCCC(=O)*

Regarding `CCCCCCCCCCCCCCCC(=O)NCC(=O)N[C@@H](Cc1c[nH]cn1)C(=O)O` [N-palmitoyl-Gly-His] (Palmitoyl-Gly-His-OH), the “Change in gel state after standing overnight” value (200 μl dropped onto a glass petri dish, left overnight) is reported as “White gel”. Under “gel after standing overnight, milliQ water dropped”, the “Affinity with water by addition of milliQ water” value is given as “∘”.

For the origin of these results see patent US9480772B2, “Gel sheet containing lipid peptide gelator and polymeric compound” (NISSAN CHEMICAL INDUSTRIES, LTD., priority 2010, dated 2016).
